Earlier results in patent US4554271A, “Use of high doses of derivatives of 6α-methylprednisolone for the acute treatment of stroke syndrome” (The Upjohn Company, priority 1984, dated 1985).
Where a name gives a salt, the structure may show the parent alone. Read-outs that look alike come from different tables or passages of the source.

Legend:
[1] = tested on: canine middle cerebral artery (MCA); settings: canine MCA embolization, embolectomy at 6 hours; DMSO 2 gm/kg
[2] = tested on: cyclic guanosine 3',5'-monophosphate (cyclic GMP); settings: cat
(Na^+ +K^+)-ATPase [3] = settings: for (Na^+ +K^+)-ATPase activity in the injured cord: cat
[4] = tested on: spinal cord-injured animals; settings: comparable doses (15 to 30 mg/kg) soon after injury; other studies
cerebral ischemia = settings: anesthetized gerbil; 35 mg/kg; bilateral occlusion of the carotid arteries
[5] = tested on: adenylate cyclase systems
[6] = tested on: cardiac, renal, and hepatic ischemia; settings: in vivo
[7] = single 30-mg/kg dose
[8] = tested on: ischemia-induced neurological deficits; settings: gerbils; title of cited paper
(Na^+ +K^+)-ATPase [9] = settings: cat spinal cord; large intravenous doses
lipid peroxide formation = settings: cat spinal cord; large intravenous doses
motor neuron = settings: cat; large intravenous doses
[10] = 15- or 30-mg/kg intravenous dose given 30 minutes after trauma, earlier studies

Which “infarction of the brain” value [1] does the source give for `C[S+](C)[O-]` [DMSO, dimethyl sulfoxide] here?
The value was “no infarction”.

For `C[C@H]1C[C@@H]2[C@H]([C@@H](O)C[C@@]3(C)[C@H]2CC[C@]3(O)C(=O)CO)[C@@]2(C)C=CC(=O)C=C12` [methylprednisolone, 1-Dehydro-6α-methylhydrocortisone], which “duration of its pharmacological actions” value (cat, single intravenous administration) is on record?
Its value is “roughly 3 hours”.

And the “spinal cord tissue levels of methylprednisolone at which each of the effects is apparent” value (cat, single intravenous dose of 30 mg/kg)?
The value was “around 1.3 μg/gm wet weights”.

And the “half-life in cat spinal cord” value (single intravenous administration, 30 mg/kg)?
The value was “roughly 3 hours”.

And the “lipid peroxidation at 1 hour after injury” value (lipid peroxidation; [10])?
Its value is “significantly reduce”.

What about the “injury-induced increase in fluorescence (lipid peroxy products) in spinal segment” value (lipid peroxidation; cat, 15 or 30 mg/kg i.v. at 30 minutes after injury, read at 1 hour) of the same compound?
The value was “completely prevented”.

And the “injury-induced increase in cyclic GMP content in spinal segment” value ([2]; 15 or 30 mg/kg i.v. at 30 minutes after injury, read at 1 hour)?
The value was “completely prevented”.

And the “elevation in cyclic GMP” value ([2]; 60-mg/kg dose)?
The value was “did not prevent”.

And the “(Na^+ +K^+)-ATPase activity at 1 hour after injury” value ((Na^+ +K^+)-ATPase [3]; [10])?
The value was “enhance”.

What about the “(Na^+ +K^+)-ATPase activity in the injured cord” value ((Na^+ +K^+)-ATPase [3]; 30-mg/kg dose) of the same compound?
Its value is “striking increase”.

What about the “(Na^+ +K^+)-ATPase activity in the injured cord” value ((Na^+ +K^+)-ATPase [3]; 60-mg/kg dose) of the same compound?
The value was “depression in activity”.

What about the “recovery and tissue preservation in spinal cord-injured animals” value [4] of the same compound?
The value was “significantly greater”.

And the “survival after cerebral ischemia” value (cerebral ischemia)?
Its value is “improved survival”.

And the “damaging effect (adenylate cyclase systems) of 60 minutes occlusion plus 15 minutes recirculation” value ([5]; barbiturate-anesthetized gerbils, pretreatment 30 mg/kg, 30 min. prior to carotid ligation)?
Its value is “prevented”.

What about the “chronic (7 days) enzyme damage elicited by 15 minutes of bilateral stroke” value ([5]; gerbils, preliminary work) of the same compound?
The value was “prevented”.

And the “relieving cardiac, renal, and hepatic ischemia” value [6]?
Its value is “effective”.

And the harmful effects [7]?
Its harmful effects is “virtually without harmful effects”.

With `C=CCN1CC[C@]23c4c5ccc(O)c4O[C@H]2C(=O)CC[C@@]3(O)[C@H]1C5` [naloxone] as the compound, how does the “reversal of ischemia-induced neurological deficits” value [8] read?
Its value is “Failure”.

Which “spinal cord (Na^+ +K^+)-ATPase activity” value ((Na^+ +K^+)-ATPase [9]) does the source give for `C[C@H]1C[C@@H]2[C@H]([C@@H](O)C[C@@]3(C)[C@H]2CC[C@]3(O)C(=O)COC(=O)CCC(=O)O)[C@@]2(C)C=CC(=O)C=C12` [methylprednisolone sodium succinate, 1-dehydro-6α-methylhydrocortisone 21-hemisuccinate sodium salt] here?
Its value is “enhancement”.

What about the lipid peroxide formation (lipid peroxide formation) of the same compound?
The lipid peroxide formation was “attenuation”.

What about the “impulse conduction along the myelinated portion of the motor axon” value (motor neuron) of the same compound?
Its value is “accelerated”.

And the “motor neuron resting membrane potentials” value (motor neuron)?
Its value is “hyperpolarization”.
